# From BindingDB's records for doi:10.1007/s00213-009-1521-8 (Case Western Reserve University, 2009)
# Legend:
# [1] = target: Prostaglandin E2 receptor EP3 subtype (Homo sapiens, UniProt P43115)
# [2] = target: Beta-3 adrenergic receptor (Homo sapiens, UniProt P13945)
# [3] = target: Kappa-type opioid receptor (Homo sapiens, UniProt P41145)
# [4] = target: Alpha-1D adrenergic receptor (Homo sapiens, UniProt P25100)
# [5] = target: 5-hydroxytryptamine receptor 5A (Homo sapiens, UniProt P47898)
# [6] = target: Alpha-1B adrenergic receptor (Homo sapiens, UniProt P35368)
# [7] = target: 5-hydroxytryptamine receptor 6 (Homo sapiens, UniProt P50406)
# Chain of 5-hydroxytryptamine receptor 6 (P50406 whole entry): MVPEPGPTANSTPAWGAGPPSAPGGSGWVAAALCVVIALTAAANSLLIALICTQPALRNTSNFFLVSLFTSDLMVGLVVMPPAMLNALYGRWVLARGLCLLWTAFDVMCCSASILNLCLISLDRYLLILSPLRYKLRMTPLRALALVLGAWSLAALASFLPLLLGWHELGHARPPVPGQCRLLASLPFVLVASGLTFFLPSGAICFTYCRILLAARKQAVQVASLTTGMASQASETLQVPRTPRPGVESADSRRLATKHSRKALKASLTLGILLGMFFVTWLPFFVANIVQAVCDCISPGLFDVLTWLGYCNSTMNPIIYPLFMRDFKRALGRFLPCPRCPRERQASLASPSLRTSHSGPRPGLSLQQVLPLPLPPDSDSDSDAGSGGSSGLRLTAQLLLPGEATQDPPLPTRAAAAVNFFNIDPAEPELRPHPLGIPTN
# D(4) dopamine receptor = D(4) dopamine receptor (Homo sapiens, UniProt P21917)
# [8] = target: 5-hydroxytryptamine receptor 1D (Homo sapiens, UniProt P28221)
# [9] = target: 5-hydroxytryptamine receptor 1A (Homo sapiens, UniProt P08908)
# [10] = target: Muscarinic acetylcholine receptor M3 (Homo sapiens, UniProt P20309)
# [11] = target: Muscarinic acetylcholine receptor M2 (Homo sapiens, UniProt P08172)
# [12] = target: Beta-1 adrenergic receptor (Homo sapiens, UniProt P08588)
# [13] = target: 5-hydroxytryptamine receptor 1E (Homo sapiens, UniProt P28566)
# Chain of 5-hydroxytryptamine receptor 1E (P28566 whole entry): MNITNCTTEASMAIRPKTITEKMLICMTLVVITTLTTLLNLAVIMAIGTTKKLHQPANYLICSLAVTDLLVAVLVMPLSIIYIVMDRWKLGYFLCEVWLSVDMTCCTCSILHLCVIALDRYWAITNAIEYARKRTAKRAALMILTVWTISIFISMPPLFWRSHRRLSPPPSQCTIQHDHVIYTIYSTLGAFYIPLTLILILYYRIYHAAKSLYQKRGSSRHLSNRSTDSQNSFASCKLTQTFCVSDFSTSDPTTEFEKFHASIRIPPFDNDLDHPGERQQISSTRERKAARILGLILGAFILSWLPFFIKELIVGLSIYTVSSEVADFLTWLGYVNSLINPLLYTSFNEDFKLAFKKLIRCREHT
# [14] = target: Alpha-1A adrenergic receptor (Homo sapiens, UniProt P35348)
# [15] = target: Gamma-aminobutyric acid receptor subunit alpha-1 (Rattus norvegicus, UniProt P62813)
# Histamine H4 receptor = Histamine H4 receptor (Homo sapiens, UniProt Q9H3N8)
# Chain of Histamine H4 receptor (Q9H3N8 whole entry): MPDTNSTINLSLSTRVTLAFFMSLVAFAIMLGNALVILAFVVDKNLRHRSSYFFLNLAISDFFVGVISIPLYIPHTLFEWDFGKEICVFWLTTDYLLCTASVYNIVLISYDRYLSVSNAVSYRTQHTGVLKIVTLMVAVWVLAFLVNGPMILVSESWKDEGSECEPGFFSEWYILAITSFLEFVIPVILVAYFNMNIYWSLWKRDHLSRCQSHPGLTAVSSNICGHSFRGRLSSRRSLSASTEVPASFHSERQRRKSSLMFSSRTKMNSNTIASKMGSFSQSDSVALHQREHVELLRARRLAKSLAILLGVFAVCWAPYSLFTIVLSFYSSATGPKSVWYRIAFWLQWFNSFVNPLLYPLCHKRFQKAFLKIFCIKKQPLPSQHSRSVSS
# [16] = target: Beta-2 adrenergic receptor (Homo sapiens, UniProt P07550)
# [17] = target: Muscarinic acetylcholine receptor M4 (Homo sapiens, UniProt P08173)
# [18] = target: Muscarinic acetylcholine receptor M5 (Homo sapiens, UniProt P08912)
# Histamine H1 receptor = Histamine H1 receptor (Homo sapiens, UniProt P35367)
# D(1B) dopamine receptor = D(1B) dopamine receptor (Homo sapiens, UniProt P21918)
# [19] = target: 5-hydroxytryptamine receptor 2C (Homo sapiens, UniProt P28335)
# Mu-type opioid receptor = Mu-type opioid receptor (Homo sapiens, UniProt P35372)
# [20] = target: Delta-type opioid receptor (Homo sapiens, UniProt P41143)
# Chain of Delta-type opioid receptor (P41143 whole entry): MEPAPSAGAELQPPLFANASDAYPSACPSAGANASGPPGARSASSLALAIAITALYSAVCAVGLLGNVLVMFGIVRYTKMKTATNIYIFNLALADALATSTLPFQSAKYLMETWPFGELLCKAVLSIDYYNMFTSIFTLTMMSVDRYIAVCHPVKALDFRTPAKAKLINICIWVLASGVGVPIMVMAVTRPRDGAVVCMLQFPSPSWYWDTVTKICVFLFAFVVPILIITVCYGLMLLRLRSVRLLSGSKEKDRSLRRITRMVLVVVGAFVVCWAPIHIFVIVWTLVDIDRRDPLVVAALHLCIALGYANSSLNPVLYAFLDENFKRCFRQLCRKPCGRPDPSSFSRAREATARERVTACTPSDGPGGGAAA
# [21] = target: Sodium-dependent noradrenaline transporter (Homo sapiens, UniProt P23975)
# Chain of Sodium-dependent noradrenaline transporter (P23975 whole entry): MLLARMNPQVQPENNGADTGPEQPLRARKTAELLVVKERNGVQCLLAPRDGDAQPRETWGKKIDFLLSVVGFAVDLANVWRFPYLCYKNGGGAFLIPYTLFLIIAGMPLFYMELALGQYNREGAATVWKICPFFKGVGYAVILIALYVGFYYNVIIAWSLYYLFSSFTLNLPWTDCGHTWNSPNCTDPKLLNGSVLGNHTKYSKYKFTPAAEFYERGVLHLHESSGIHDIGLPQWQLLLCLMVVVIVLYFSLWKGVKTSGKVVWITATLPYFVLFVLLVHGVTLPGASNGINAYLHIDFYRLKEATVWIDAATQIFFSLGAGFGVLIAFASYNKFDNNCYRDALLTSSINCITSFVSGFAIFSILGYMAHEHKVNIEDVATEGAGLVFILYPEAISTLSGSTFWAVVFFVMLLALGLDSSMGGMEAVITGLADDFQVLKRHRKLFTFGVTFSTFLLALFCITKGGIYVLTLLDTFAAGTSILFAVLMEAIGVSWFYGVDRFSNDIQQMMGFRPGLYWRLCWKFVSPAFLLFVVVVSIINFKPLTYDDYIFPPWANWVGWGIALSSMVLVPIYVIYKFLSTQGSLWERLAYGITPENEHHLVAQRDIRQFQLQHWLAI
# [22] = target: 5-hydroxytryptamine receptor 3A (Homo sapiens, UniProt P46098)
# Chain of 5-hydroxytryptamine receptor 3A (P46098 whole entry): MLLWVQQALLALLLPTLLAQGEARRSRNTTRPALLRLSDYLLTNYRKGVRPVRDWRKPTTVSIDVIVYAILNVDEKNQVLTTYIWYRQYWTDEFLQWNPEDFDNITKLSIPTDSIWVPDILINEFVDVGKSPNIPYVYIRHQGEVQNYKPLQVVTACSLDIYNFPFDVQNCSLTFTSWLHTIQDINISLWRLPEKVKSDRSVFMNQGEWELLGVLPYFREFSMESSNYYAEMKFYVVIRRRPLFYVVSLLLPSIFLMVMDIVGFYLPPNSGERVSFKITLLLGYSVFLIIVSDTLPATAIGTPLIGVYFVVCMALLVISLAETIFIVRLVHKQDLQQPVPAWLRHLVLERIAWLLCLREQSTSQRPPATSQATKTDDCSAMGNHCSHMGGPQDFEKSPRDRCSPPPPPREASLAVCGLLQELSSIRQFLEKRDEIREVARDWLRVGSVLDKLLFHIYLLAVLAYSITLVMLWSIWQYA
# [23] = target: Alpha-2C adrenergic receptor (Homo sapiens, UniProt P18825)
# Chain of Alpha-2C adrenergic receptor (P18825 whole entry): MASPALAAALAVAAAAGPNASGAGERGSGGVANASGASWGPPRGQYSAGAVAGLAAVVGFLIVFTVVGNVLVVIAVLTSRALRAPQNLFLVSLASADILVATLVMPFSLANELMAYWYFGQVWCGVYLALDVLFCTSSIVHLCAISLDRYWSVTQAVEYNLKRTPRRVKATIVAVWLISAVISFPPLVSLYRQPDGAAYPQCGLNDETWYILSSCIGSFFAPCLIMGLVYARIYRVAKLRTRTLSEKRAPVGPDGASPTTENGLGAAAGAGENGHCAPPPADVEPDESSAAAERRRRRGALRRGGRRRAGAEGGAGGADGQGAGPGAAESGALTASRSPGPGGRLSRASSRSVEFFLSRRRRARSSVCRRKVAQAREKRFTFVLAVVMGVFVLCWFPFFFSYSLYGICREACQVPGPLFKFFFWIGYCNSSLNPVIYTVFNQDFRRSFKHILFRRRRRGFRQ
# Histamine H2 receptor = Histamine H2 receptor (Homo sapiens, UniProt P25021)
# Chain of Histamine H2 receptor (P25021 whole entry): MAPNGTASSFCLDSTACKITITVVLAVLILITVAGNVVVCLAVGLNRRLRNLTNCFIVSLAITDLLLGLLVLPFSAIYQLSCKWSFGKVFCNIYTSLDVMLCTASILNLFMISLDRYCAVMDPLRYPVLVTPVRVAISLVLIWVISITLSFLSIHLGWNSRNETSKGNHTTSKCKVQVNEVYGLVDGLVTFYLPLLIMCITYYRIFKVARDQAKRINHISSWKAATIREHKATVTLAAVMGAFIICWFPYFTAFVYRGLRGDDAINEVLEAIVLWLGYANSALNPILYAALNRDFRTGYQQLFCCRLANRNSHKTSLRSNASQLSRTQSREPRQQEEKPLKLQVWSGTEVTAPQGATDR
# [24] = target: Sigma non-opioid intracellular receptor 1 (Rattus norvegicus, UniProt Q9R0C9)
# Chain of Sigma non-opioid intracellular receptor 1 (Q9R0C9 whole entry): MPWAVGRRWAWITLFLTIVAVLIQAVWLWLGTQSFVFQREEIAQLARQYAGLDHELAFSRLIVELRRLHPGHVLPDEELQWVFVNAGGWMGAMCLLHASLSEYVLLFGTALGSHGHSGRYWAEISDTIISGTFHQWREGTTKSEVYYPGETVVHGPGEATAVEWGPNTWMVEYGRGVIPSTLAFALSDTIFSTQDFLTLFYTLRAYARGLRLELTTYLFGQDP
# [25] = target: Alpha-2A adrenergic receptor (Homo sapiens, UniProt P08913)
# Chain of Alpha-2A adrenergic receptor (P08913 whole entry): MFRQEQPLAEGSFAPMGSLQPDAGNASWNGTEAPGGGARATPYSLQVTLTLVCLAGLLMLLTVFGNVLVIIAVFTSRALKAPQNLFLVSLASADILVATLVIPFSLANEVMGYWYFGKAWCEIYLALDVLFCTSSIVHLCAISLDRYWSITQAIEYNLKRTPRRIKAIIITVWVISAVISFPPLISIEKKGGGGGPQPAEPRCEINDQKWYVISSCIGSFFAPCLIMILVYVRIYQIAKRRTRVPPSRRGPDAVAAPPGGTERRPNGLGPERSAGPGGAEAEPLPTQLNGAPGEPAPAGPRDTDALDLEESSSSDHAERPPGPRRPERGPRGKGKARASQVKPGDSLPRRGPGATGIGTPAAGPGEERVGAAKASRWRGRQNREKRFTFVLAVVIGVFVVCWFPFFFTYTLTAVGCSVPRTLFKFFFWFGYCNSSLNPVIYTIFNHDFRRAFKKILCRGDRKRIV
# D(1A) dopamine receptor = D(1A) dopamine receptor (Homo sapiens, UniProt P21728)
# [26] = target: Muscarinic acetylcholine receptor M1 (Homo sapiens, UniProt P11229)
# [27] = target: 5-hydroxytryptamine receptor 1B (Homo sapiens, UniProt P28222)
# [28] = target: Prostaglandin E2 receptor EP4 subtype (Homo sapiens, UniProt P35408)
# Chain of 5-hydroxytryptamine receptor 5A (P47898 whole entry): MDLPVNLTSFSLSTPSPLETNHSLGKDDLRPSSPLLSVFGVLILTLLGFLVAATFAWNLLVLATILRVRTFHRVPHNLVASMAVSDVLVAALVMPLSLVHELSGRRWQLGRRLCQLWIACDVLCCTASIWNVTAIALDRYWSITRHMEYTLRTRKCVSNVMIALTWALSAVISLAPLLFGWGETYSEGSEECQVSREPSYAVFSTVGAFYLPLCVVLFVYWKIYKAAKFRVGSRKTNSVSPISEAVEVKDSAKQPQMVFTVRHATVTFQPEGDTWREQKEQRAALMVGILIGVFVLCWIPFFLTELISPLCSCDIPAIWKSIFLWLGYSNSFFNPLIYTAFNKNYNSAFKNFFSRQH
# Chain of Beta-3 adrenergic receptor (P13945 whole entry): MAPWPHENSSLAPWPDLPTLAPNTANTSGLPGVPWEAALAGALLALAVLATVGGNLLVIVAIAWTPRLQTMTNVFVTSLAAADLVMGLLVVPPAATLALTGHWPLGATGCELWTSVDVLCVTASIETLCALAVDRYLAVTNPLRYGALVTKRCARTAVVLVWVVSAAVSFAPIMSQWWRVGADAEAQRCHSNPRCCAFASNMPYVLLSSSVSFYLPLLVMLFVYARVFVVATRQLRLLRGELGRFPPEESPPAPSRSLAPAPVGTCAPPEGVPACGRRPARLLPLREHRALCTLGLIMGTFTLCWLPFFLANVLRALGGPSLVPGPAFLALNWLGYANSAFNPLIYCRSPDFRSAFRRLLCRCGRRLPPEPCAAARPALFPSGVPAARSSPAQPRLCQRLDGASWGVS
smiles,measurement,setting,value
CCN1CCCC1CNC(=O)c1cc(S(=O)(=O)CC)c(N)cc1OC (stereo not given) [NSC_2159],Ki,[1],> 10 µM
same,Ki,[2],> 10 µM
same,Ki,[3],> 10 µM
same,Ki,[4],> 10 µM
same,Ki,[5],> 10 µM
same,Ki,[6],> 10 µM
same,Ki,[7],4.15 µM
same,Ki,D(4) dopamine receptor,2.37 µM
same,Ki,[8],1.34 µM
same,Ki,[9],> 10 µM
same,Ki,[10],> 10 µM
same,Ki,[11],> 10 µM
same,Ki,[12],> 10 µM
same,Ki,[13],> 10 µM
same,Ki,[14],> 10 µM
same,Ki,[15],> 10 µM
same,Ki,Histamine H4 receptor,> 10 µM
same,Ki,[16],> 10 µM
same,Ki,[17],> 10 µM
same,Ki,[18],> 10 µM
same,Ki,Histamine H1 receptor,> 10 µM
same,Ki,D(1B) dopamine receptor,> 10 µM
same,Ki,[19],> 10 µM
same,Ki,Mu-type opioid receptor,> 10 µM
same,Ki,[20],> 10 µM
same,Ki,[21],> 10 µM
same,Ki,[22],> 10 µM
same,Ki,[23],1.54 µM
same,Ki,Histamine H2 receptor,> 10 µM
same,Ki,[24],> 10 µM
same,Ki,[25],1.11 µM
same,Ki,D(1A) dopamine receptor,> 10 µM
same,Ki,[26],> 10 µM
same,Ki,[27],1.74 µM
same,Ki,[28],> 10 µM
